Results taken from patent publication US9724506B2, “Nanopillar electrode devices and methods of recording action potentials” (The Board of Trustees of the Leland Stanford Junior …, priority 2013, dated 2017).
“And” between values parts separate entries of the source, which are not always exact repeats. Identical values can stand only once.

System: HL-1 cells
Assay: Nanopillar electrode intracellular recording of HL-1 action potentials after electroporation, before and after ion-channel drug
Format: cell-based, mouse
Settings: for APD50 after drug: 10 min incubation, 4 different HL-1 cells in 3 cultures, same cell recorded before and after drug; for APD50 change (%): APD50 after drug versus before drug on the same HL-1 cell
Protocol: The HL-1 cardiomyocyte cell line was obtained from the laboratory of William C. Claycomb at Louisiana State University. Before plating, the nanopillar electrode device was cleaned with detergent and deionized water, followed by 5 minutes of oxygen plasma treatment. The culture chamber was coated with 5 Δg ml^−1 fibronectin in 0.02% gelatin solution overnight to facilitate cell attachment (Claycomb et al. (1998) Proc. Natl. Acad. Sci. USA 95:2979-2984). HL-1 cells were then plated inside the chamber at a density of ˜1×10^5 cm^−2 and were maintained in the Claycomb medium supplemented with 10% fetal bovine serum, 0.1 mM norepinephrine, 2 mM L-glutamine and 100 U ml^−1 penicillin and 100 Δg ml^−1 streptomycin. The cells were maintained in a standard incubator at 37° C. and 5% CO2. Medium was changed every 24 hours. […] Fluorescent imaging of calcein dye was performed with a 470 nm excitation filter and a 525 nm emission filter.
A 60-channel voltage amplifier system (Multichannel System, MEA1060) was used to record HL-1 cells cultured on the nanopillar electrode arrays (nine nanopillars per array) after the cells started beating. Recording was performed in the same culture medium at 37° C. with an Ag/AgCl electrode in the medium as the reference electrode. The amplification was typically 110× for intracellular recording or 1,100× for extracellular recording, and the sampling rate was 5-20 kHz. The signal was filtered with a band-pass of 1 Hz-5 kHz. For electroporation, 20 biphasic pulses of 2.5 Vamp were applied to a nanopillar electrode in a total time of 1 second. The recording system was blanked during the electroporation period. Electrophysiology recordings were resumed 20-40 seconds after electroporation to avoid amplifier saturation.
For control experiments, we electroporated the cells to record action potentials in the absence of drugs. After the cells had recovered for a few hours, nifedipine or tetraethyl-ammonium of different concentrations was added to the culture medium and the cultures incubated for 10 minutes. Subsequently, another electroporation was applied to record the action potentials of the drug-treated cells.

[1] = 10 mM tetraethylammonium, HL-1 cells, versus control recording without drug (FIG. 5)

Q: How did the APD50 after drug (1 mM tetraethylammonium) turn out when `CC[N+](CC)(CC)CC` [tetraethylammonium] was run?
A: The APD50 after drug was 50.54 ms and 45.74 ms and 48.78 ms and 54.93 ms.

Q: What about the “APD50 change (%)” value (1 mM tetraethylammonium) of the same compound?
A: The value was 109.9% and 110.5% and 111.1% and 109.8%.

Q: What about the APD50 [1] of the same compound?
A: Its APD50 is “increasing APD50”.

Q: What about the action potential period [1] of the same compound?
A: Its action potential period is “decreasing the period”.

Q: What about the “APD50 relative to the control” value (FIG. 5c, four different HL-1 cells on three different cultures per drug) of the same compound?
A: Its value is “increase”.

Q: Which results are given for `COC(=O)C1=C(C)NC(C)=C(C(=O)OC)C1c1ccccc1[N+](=O)[O-]` [nifedipine]?
A: APD50 after drug (100 nM nifedepine): 41.52 ms and 43.40 ms and 40.92 ms and 33.39 ms; APD50 change (%) (100 nM nifedepine): 93.8% and 93.6% and 94.0% and 92.9%
